Structures are written as SMILES. Where only a bound is given, the exact number is not on record here.

The subject of series [1] is Listeria monocytogenes 11994. Description: Viable count of L. monocytogenes in TSB with plant oils, benzoic acid, methyl paraben and combinations (Experimental Procedure 1). In kind it is cell-based. The following applies: for log10 of the mean count: 37° C.; for inhibition of L. monocytogenes in words: over the 48 hr period. How it is done:
(§1) Listeria monocytogenes 11994 and Salmonella […] 4444 were purchased from the National Collection Type Culture, Porton Down, Wiltshire, UK. Each was stored in the long term in glycerol at -20° C., in the medium term on Tryptone Soya Agar (TSA) slopes and in the short term on TSA plates. All agar and broth (Tryptone Soya Broth) was purchased from Oxoid-Unipath Limited, Basingstoke, UK. […] Plates were incubated at 37° C. and colonies counted as colony forming units per ml (cfu/ml). […] Oils of fennel and […] used at 0.2% and whilst oil of basil was originally used for comparative purposes at 0.2% it was later used at 0.02%. […] Several factors were considered when choosing these concentrations. […] Triplicate plates were prepared for each dilution and the mean count of three plates was determined. […] Each experiment was performed on three separate occasions. It is the mean count from three separate experiments and the corresponding standard error of the mean which are shown in the results section. Two-tailed paired student's t-test was used to analyse inhibition caused by a combination compared to the corresponding control. Differences were judged to be statistically significant when p<0.05.

Series [2] relates to Salmonella enteriditis 4444. Description: Viable count of S. enteriditis in TSB with plant oils, benzoic acid, methyl paraben and combinations (Experimental Procedure 1). In kind it is cell-based. Conditions: for log10 of the mean count: 37° C.; for inhibition of S. enteriditis in words: over the 48 hr period. How it is done: as §1
Series [3] has as its system mice. Conditions: high doses, literature [22,23]; cited from earlier work.
In series [4] the test system is Listeria monocytogenes 11994. Description: Viable count of L. monocytogenes in TSB with trans-anethole, fenchone, estragole, methyl paraben and combinations (Experimental Procedure 2). It counts as cell-based. The following applies: for log10 of the mean count ± 1 SEM: 37° C., preservatives at 0.1%; for inhibition of L. monocytogenes in words: 0.1%, over 48 hrs. As to the method: (§2) Listeria monocytogenes 11994 and Salmonella enteriditis 4444 were purchased from the National Collection Type Culture, Porton Down, Wiltshire, UK. Each was stored in the long term in glycerol at −20° C., in the medium term on Tryptone Soya Agar (TSA) slopes and in the short term on TSA plates. All agar and broth (Tryptone Soya Broth) was purchased from Oxoid-Unipath Limited, Basingstoke, UK.
(§3) Triplicate plates were prepared for each dilution and the mean count of three plates was determined. […] Each experiment was performed on three separate occasions.
(§4) Two-tailed paired student's t-test was used to analyse inhibition caused by a combination compared to the corresponding control. Differences were judged to be statistically significant when p<0.05.
(§5) This definition is also in agreement with Mims et al.
(§6) Corresponding controls were also prepared, thus 10 μl of each overnight culture was added to the appropriate broth only. All tubes were incubated at 37° C. 1 ml samples were removed from each test and control after vortexing at 0 hrs, 1 hr, 4 hrs, 8 hrs, 24 hrs and 48 hrs and serially diluted in 0.01M PBS. 100 μl from each dilution was placed on an agar plate and spread across the surface. Plates were incubated at 37° C. and colonies counted as colony forming units per ml (cfu/ml). As ethanol was used to prepare stock solutions of methyl paraben a diluent control was used where ethanol was added to each culture medium. […] Due to the limitation of the serial dilution technique it was not possible to count cfu less than 10/ml.
(§7) Furthermore to make valid comparison about the activity of each combination against each microbe it was necessary to use just one concentration of each component with the combination. […] In addition, methyl paraben cannot be used in food in excess of 0.1% [15].

The subject of series [5] is Salmonella enteriditis 4444. Description: Viable count of S. enteriditis in TSB with trans-anethole, fenchone, estragole, methyl paraben and combinations (Experimental Procedure 2). It counts as cell-based. Conditions: for inhibition of S. enteriditis in words: 0.1%, over the 48 hr period; for log10 of the mean count ± 1 SEM: 37° C., preservatives at 0.1%. How it is done:
as §2, §3, §4, §5, §6, §7

For series [6] the following is noted: literature [20,21]; cited from earlier work.
The mark [7] stands for this setting: 0 hrs (starting count, same as control).

As for `O=C(O)c1ccccc1` [BA, benzoic acid], the “log10 of the mean count” value is 6.45 ± 0.02 log10 cfu/ml in series [1] (setting [7]); 6.33 ± 0.11 log10 cfu/ml in series [1] (1 hr); 7.22 ± 0.04 log10 cfu/ml in series [1] (4 hrs); 8.16 ± 0.06 log10 cfu/ml in series [1] (8 hrs); 9.09 ± 0.03 log10 cfu/ml in series [1] (24 hrs); 9.0 ± 0.06 log10 cfu/ml in series [1] (48 hrs). Besides, the “log10 of the mean count” value in series [2] (setting [7]) is 6.08 ± 0.03 log10 cfu/ml; in series [2] (1 hr), 6.02 ± 0.04 log10 cfu/ml; in series [2] (4 hrs) it was 6.46 ± 0.01 log10 cfu/ml; in series [2] (8 hrs) it was 7.32 ± 0.08 log10 cfu/ml; in series [2] (24 hrs), 8.67 ± 0.14 log10 cfu/ml; in series [2] (48 hrs), 8.52 ± 0.03 log10 cfu/ml. In addition, the “inhibition of L. monocytogenes in words” value in series [1] is “relatively weakly inhibitory”. In series [2], the “inhibition of S. enteriditis in words” value is on record as “little inhibition”.
For the compound `C=CCc1ccc(OC)cc1` [Estragole, estragole (4-allylanisole)], the carcinogenicity in words entry in series [3] is on record as “carcinogenic in high doses in mice”. Further, the “log10 of the mean count ± 1 SEM” value is 5.9 ± 0.05 log10 cfu/ml in series [4] (1 hr); 5.6 ± 0.07Δ log10 cfu/ml in series [4] (4 hrs); 5.5 ± 0.06Δ log10 cfu/ml in series [4] (8 hrs); 4.9 ± 0.08Δ log10 cfu/ml in series [4] (24 hrs); 4.7 ± 0.09Δ log10 cfu/ml in series [4] (48 hrs); 2.2 ± 0.05Δ log10 cfu/ml in series [5] (1 hr). Also, the “log10 of the mean count ± 1 SEM” value is 1.6 ± 0.08Δ log10 cfu/ml in series [5] (4 hrs), 1.5 ± 0.08Δ log10 cfu/ml in series [5] (8 hrs), 4.3 ± 0.03Δ log10 cfu/ml in series [5] (24 hrs) and 6.9 ± 0.03Δ log10 cfu/ml in series [5] (48 hrs). Also, the inhibition of growth result in series [4] (after 24 hrs) is on record as “more than 4 log10”. Further, in series [5], the “inhibition of S. enteriditis in words” value was “two most single inhibitory preservatives”. Also, the “growth inhibited by” value in series [5] (4 hrs and 8 hrs) is “more than 5.0 log10”. In addition, the inhibition in series [5] (48 hrs) stood at 2.1 log10.
Turning to `CC12CCC(C1)C(C)(C)C2=O` (stereo not shown) [Fenchone, fenchone], the “inhibition of L. monocytogenes in words” value in series [4] is given as “most inhibitory single component”. Further, the “log10 of the mean count ± 1 SEM” value is on record as 2.7 ± 0.2Δ log10 cfu/ml in series [4] (1 hr); 1.9 ± 0.08Δ log10 cfu/ml in series [4] (4 hrs); <1.0Δ log10 cfu/ml in series [4] (8 hrs); <0.1Δ log10 cfu/ml in series [4] (24 hrs); <1.0Δ log10 cfu/ml in series [4] (48 hrs); 5.8 ± 0.02 log10 cfu/ml in series [5] (1 hr). The “log10 of the mean count ± 1 SEM” value is listed as 6.4 ± 0.04 log10 cfu/ml in series [5] (4 hrs), 6.9 ± 0.04Δ log10 cfu/ml in series [5] (8 hrs), 8.6 ± 0.09Δ log10 cfu/ml in series [5] (24 hrs) and 8.5 ± 0.01Δ log10 cfu/ml in series [5] (48 hrs). Further, the “count (cells undetectable)” value in series [4] (8 hrs and above) was below 10 cfu/ml. For the same compound, in series [6], the toxicity in words result is listed as “non-toxic”. In addition, the “inhibition of S. enteriditis in words” value in series [5] was “little or no inhibition”.
Regarding `COC(=O)c1ccc(O)cc1` [MP, methyl paraben], the “log10 of the mean count” value in series [1] (setting [7]) is on record as 6.45 ± 0.02 log10 cfu/ml; in series [1] (1 hr), 6.49 ± 0.01 log10 cfu/ml; in series [1] (4 hrs) it was 7.02 ± 0.02 log10 cfu/ml; in series [1] (8 hrs) it was 7.86 ± 0.05 log10 cfu/ml; in series [1] (24 hrs), 9.27 ± 0.02 log10 cfu/ml; in series [1] (48 hrs) it was 9.24 ± 0.02 log10 cfu/ml. The “log10 of the mean count” value in series [2] (setting [7]) is on record as 6.08 ± 0.03 log10 cfu/ml; in series [2] (1 hr) it was 6.04 ± 0.05 log10 cfu/ml; in series [2] (4 hrs) it was 6.32 ± 0.03 log10 cfu/ml; in series [2] (8 hrs) it was 6.63 ± 0.03 log10 cfu/ml; in series [2] (24 hrs) it was 8.36 ± 0.05 log10 cfu/ml; in series [2] (48 hrs) it was 8.45 ± 0.11 log10 cfu/ml. Also, the “inhibition of L. monocytogenes in words” value is listed as “relatively weakly inhibitory” in series [1] and “little or no inhibitory properties” in series [4]. Moreover, the “log10 of the mean count ± 1 SEM” value in series [4] (1 hr) came out at 6.5 ± 0.01 log10 cfu/ml; in series [4] (4 hrs), 6.9 ± 0.01 log10 cfu/ml; in series [4] (8 hrs), 7.7 ± 0.01 log10 cfu/ml; in series [4] (24 hrs), 9.3 ± 0.01 log10 cfu/ml; in series [4] (48 hrs), 9.2 ± 0.01 log10 cfu/ml; in series [5] (1 hr) it was 6.0 ± 0.01 log10 cfu/ml. Besides, the “log10 of the mean count ± 1 SEM” value in series [5] (4 hrs) is 6.3 ± 0.01 log10 cfu/ml; in series [5] (8 hrs), 6.6 ± 0.06Δ log10 cfu/ml; in series [5] (24 hrs) it was 8.5 ± 0.04Δ log10 cfu/ml; in series [5] (48 hrs) it was 8.6 ± 0.01Δ log10 cfu/ml. Moreover, the “inhibition of S. enteriditis in words” value is recorded as “little or no inhibition” in series [5] and “little inhibition” in series [2].
In the case of `C/C=C/c1ccc(OC)cc1` [Trans-anethole], the “inhibition of L. monocytogenes in words” value in series [4] is “little or no inhibitory properties”. Besides, the “log10 of the mean count ± 1 SEM” value in series [4] (1 hr) was 6.1 ± 0.04 log10 cfu/ml; in series [4] (4 hrs), 6.3 ± 0.1 log10 cfu/ml; in series [4] (8 hrs), 6.7 ± 0.2 log10 cfu/ml; in series [4] (24 hrs), 9.0 ± 0.1 log10 cfu/ml; in series [4] (48 hrs) it was 9.0 ± 0.01 log10 cfu/ml. For the same compound, in series [6], the toxicity in words result was “non-toxic”.

Values taken from patent US6875452B1, “Inhibitor and preservative formulation” (priority 1997, dated 2005).
